Measurements reported in patent publication US4783410A (priority 1985, dated 1988).
Entries after “also recorded” stand apart in the source; their conditions may differ.

What was measured:
[1] = biological target: CTL serine esterase (G4 extract) (Mus musculus, UniProt P11032); assay: biochemical; assay type: biochemical, murine
[2] = tested on: specific target cell lysis of P815 cells by CTL clone G4; assay type: cell-based, murine
[3] = tested on: specific target cell lysis of P815 cells by CTL clone G4; details: cited from earlier work

Sequence of CTL serine esterase (G4 extract) (P11032 29-260): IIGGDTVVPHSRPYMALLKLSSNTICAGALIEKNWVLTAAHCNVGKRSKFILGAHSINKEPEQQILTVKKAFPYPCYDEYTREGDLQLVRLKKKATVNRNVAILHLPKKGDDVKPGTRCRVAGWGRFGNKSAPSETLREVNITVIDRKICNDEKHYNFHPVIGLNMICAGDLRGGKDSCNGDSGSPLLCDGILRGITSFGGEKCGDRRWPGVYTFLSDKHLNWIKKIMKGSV

SMILES | Inhibition of CTL esterase activity (in words) [1] | Inhibition of lysis of P815 cells by cloned anti-D^d G4 cells [2] | Toxicity to G4 cells by 51Cr release or reduced recovery of viable (trypan blue-negative) cells (G4 cells) | inhibition at 500 µM ([1]; read-out: Percent Inhibition of esterase activity) | Block of CTL cytotoxicity [3]
O=S(=O)(F)Cc1ccccc1 [PMSF, phenylmethylsulfonyl fluoride] | blocked completely; also recorded: completely inhibitable | clearly inhibits lysis | no additive toxicity |  | 
Cc1ccc(S(=O)(=O)NC(CCCCN)C(=O)CCl)cc1 (stereo not drawn) [TLCK, N^alpha -tosyl lysyl chloromethyl ketone] | not, however, inhibited |  |  | 4.6% | known to block CTL cytotoxicity
